According to patent US8710045B2, “Agents for preventing and treating disorders involving modulation of the ryanodine receptors” (The Trustees of Columbia University in the City of New York, priority 2004, dated 2014):

Key:
[1] = test system: C57BL/6J mice; test: S36 chronic exercise model: swimming velocity tracking and treadmill running; type: in vivo, mouse
Protocol: Drug Delivery: Eight-week-old, wild-type, weight-matched, C57BL/6J littermate mice were randomized to either S36 or vehicle treatment. On day −2, osmotic infusion pumps (Alzet Model 2004, 200 μl total volume, 0.25 μl/hr delivery, Durect, Cupertino, Calif.) filled with either 200 ul of PBS or 200 μl of S36 (10 μg/ul diluted in PBS) were implanted subcutaneously on the dorsal surface of the mice by a horizontal incision just behind the neck. Mice were allowed to recover for three days prior to the initiation of exercise. Standard food and water were provided ad libitum.
Exercise Protocols: Beginning on day 1, mice were exercised for three weeks by swimming 5 days/week and by running on a treadmill an additional 1 day/week.
Swimming Model: The daily swimming protocol consisted of swimming sessions twice-daily separated by one-hour rest periods. After an initial conditioning regimen lasting 5 days during which the swimming sessions were increased in 10 minute increments from 40 minutes each to 80 minutes each, the swimming sessions thereafter lasted 90 minutes each. A 30 cm wide by 30 cm long opaque acrylic tank was filled with tap water to a depth of at least 20 cm. Water was circulated and warmed to 32-34 degrees C. using a separate reservoir with heating element, thermostat, and pump. Compressed room air was bubbled from Tygon tubing with small needle holes placed at the bottom of the tank to agitate the water surface. 4 mice, matched pair-wise with respect to treatment group, swam at any one time in the tank.
In order to track the swimming activity of each individually identified mouse, a video tracking system was used (San Diego Instruments, San Diego, Calif.), which includes Sony CCD video recorder, DVD/Hard Drive, frame grabber card, and custom SMART 2.0 software with Social Behavior package capable of tracking up to 8 mice simultaneously under ideal conditions.) Mice were anesthetized by using 1.5% isoflurane in O2, and small, 0.75 cm, Velcro coins were sutured with 5-0 nylon suture to the scalp of each mouse. Plastic 1 cm colored dots, glued to the hook side of the Velcro, could be securely attached to the mouse and used for multiple subject tracking under appropriate lighting conditions. Each resultant mouse track in x,y, and time was analyzed and mean velocities, and distance swam over 2, 5, and 10 minute intervals was obtained.
Treadmill running: A Columbus Instruments (Columbus, Ohio) treadmill (Model: Exer-6M Treadmill with Treadmill Shock Detection Unit) with 6 lanes was used to run the mice. Mice were placed in their respective lanes at the lowest speed (7 meters/min) with the shocking apparatus turned off and allowed to adjust to the surroundings for 6 minutes. The forward half of the treadmill was covered with aluminum foil to block out light. A desk lamp illuminated the shocking area at the rear of the treadmill. After the adjustment period, the electric current was turned on, and the number of shocks delivered during the next two three minute intervals (training period) were recorded. The shock counter was then reset, the speed was increased to 10 m/min, and visits to the shocking area and shocks delivered to each mouse were recorded at three-minute intervals until the end of the experiment. At regular intervals, the speed of the treadmill was ramped up from the initial 10 m/min to as high as 36 m/min. The speed was increased no more than 2 m/min every 6 minutes. […]

[2] = test system: EDL muscle; test: Isometric force production of isolated EDL muscle after chronic exercise; type: in vivo, mouse; conditions: stimulation frequencies greater than 80 Hz
Protocol: Intact muscle preparation: Immediately following a forced exercise session, each mouse was sacrificed by carbon dioxide inhalation and cervical dislocation. Blood was removed by intracardiac aspiration, spun down, and plasma was eluted and frozen in liquid nitrogen. 4-0 silk sutures were tied to the proximal and distal tendons of intact EDL and soleus muscles and the muscles were dissected free and placed in a modified Ringer's solution (140 mM NaCl, 5 mM KCl, 2.0 mM CaCl2, 2 mM MgCl2, 10 mM HEPES, 10 mM glucose, pH 7.4) bubbled with 100% O2. […] After perfusion with 35C Ringer's and equilibration for 10 minutes at a resting tension of 1 cN and a brief potentiation protocol, force-frequency relationships were measured, with 60 second delays between 800 ms stimulations at 40-150 Hz. […] Following stimulation, muscle length was determined at resting tension, and muscle dry weight was recorded.
Age and sex-matched WT mice were randomized to receive osmotic pumps containing either S107 or vehicle. […] Exercise capacity was assessed once a week by a level treadmill run to exhaustion during the nocturnal cycle of the mouse. […] Isometric force production was measured in EDL muscles in a tissue bath during field stimulation.

[3] = test system: FDB muscle fibers; test: Confocal calcium imaging of isolated FDB muscle fibers during fatigue protocol; type: in vivo, mouse; conditions: FDB fibers from treated, chronically exercised mice
Protocol: Confocal microscopy: Single flexor digitorum brevis (FDB) fibers were enzymatically dissociated by standard methods (Reiken, Lacampagne et al. 2003). Briefly, the muscle was dissected from the paw, placed in a modified Ringer's solution, and stripped of all fascia. Type 1 collagenase-(2 mg/ml, Sigma) in Ringer's solution was prepared fresh, and the muscle was digested for 2 hours at 37° C. in a incubator shaking at 125 rpm. The muscle was placed in fresh Ringer's and gently triturated. Single fibers were collected and allowed to attach to glass coverslips coated in laminin (Sigma L-2020). The cells were loaded with 2 μM fluo-4-AM ester (Invitrogen) for 20 minutes, placed on the Zeiss Live 5 microscope stage and superfused for 15 minutes with Ringer's. The fibers were paced at 1 Hz for 10 minutes prior to imaging baseline fiber properties. Linescan images were continuously acquired at 1 ms scan rate during a tetanic sequence consisting of 300 ms stimulation at 100 Hz with a 2 Hz train rate. Images were analyzed in ImageJ, and an F/F0 ratio was calculated for each fiber.
Reduced fatiguability in calstabin1 rebound FDB muscle fibers: Flexor digitorum brevis (FDB) muscle fibers were enzymatically dissociated from mice following the chronic exercise protocol and loaded with the calcium indicator fluo-4. […] The kinetics of Ca^2+ release and reuptake during single twitches at 1 Hz were assessed.

[4] = test system: RyR; test: Calstabin binding to RyR in brain after isoproterenol infusion (RyR immunoprecipitation, western blot)
Protocol: Tissue lysates were prepared by homogenizing the tissue (e.g., brain, cardiac, muscle) with Tissuemiser in 0.7 ml lysis buffer (pH 7.4, 10 mM HEPES, 1 mM EDTA, 20 mM NaF, 2 mM Na3 VO4, 320 mM sucrose, and protease inhibitors) and centrifuged for 15 min at 4,000×g at 4° C. The supernatant was then centrifuged for 15 min at 10,000×g at 4° C. For brain homogenates, the supernatant was centrifuged at 50,000×g at 4° C. for 30 minutes, and the pellet (microsomes) was resuspended in homogenization buffer which was supplemented with 0.9% NaCl. For brain tissue, the resuspended pellet was used for immunoprecipitation of RyR. For cardiac and muscle tissue homogenates, the supernatant of the 10,000×g spin was used for immunoprecipitation of the RyR. Protein concentrations were measured by Bradford protein assay. The sample was frozen at −80° C. until use.
100 μg of microsomes were brought to a volume of 500 μl with modified RIP A buffer (50 mM Tris-HCl (PH 7.4), 0.9% NaCl, 5.0 mM NaF, 1.0 mM Na3VO4, 0.5% TritonX100, and protease inhibitors). […]
Experiments were performed to determine whether the compounds described herein cross the blood brain barrier and enhance binding of cal stab in to ryanodine receptors in the brain. […] RyR was immunoprecipitated using an antibody to RyR, and the presence of calstabin in the immunoprecipitates was detected using an antibody to calstabin.

Row | SMILES | swimming velocity vs PBS ([1]; day 1 of exercise) | swimming velocity and treadmill distance/fatigue time vs PBS ([1]; day 7 of exercise) | swimming velocity vs PBS ([1]; day 14) | treadmill running performance vs PBS ([1]; day 14) | treadmill running performance vs PBS ([1]; day 16) | EDL isometric force production [2] | peak tetanic calcium transients during fatigue protocol [3] | blood brain barrier penetration ([4]; mice) | in vivo binding of calstabin to RyR ([4]; mid-brain and cerebellum, after isoproterenol infusion for 5 days)
1 | COc1ccc2c(c1)CN(C(=O)C(=O)O)CCS2 [S36] | no substantial difference | no substantial difference | no significant difference | trend toward improved performance | trend toward improved performance |  |  |  | 
2 | COc1ccc2c(c1)CN(C)CCS2 [S107] |  |  |  |  |  | increased force production | delayed decline in peak tetanic calcium transients | crosses the blood brain barrier | restores in vivo binding of calstabin to RyR
